Consider 6 compounds from publication PMC3599540, “4-Aryl-4H-naphthopyrans derivatives: one-pot synthesis, evaluation of Src kinase inhibitory and anti-proliferative activities” (DARU Journal of Pharmaceutical Sciences, 2012).

The subject of test [1] is breast carcinoma (BT-20) cell line. The test can be described thus: Cell proliferation assay (CellTiter 96) in BT-20 cells. It is filed as cell-based. The following applies: DOX 10 μM, 72 h incubation, relative to DMSO control. The method, then:
Breast carcinoma BT-20 (ATCC no. HTB-19) cell lines were obtained from American Type Culture Collection. Cells were grown on 75 cm^2 cell culture with EMEM medium for breast carcinoma and supplemented with 10% fetal bovine serum (FBS), and 1% penicillin-streptomycin solution (10,000 units of penicillin and 10 mg of streptomycin in 0.9% NaCl) in a humidified atmosphere of 5% CO2, 95% air at 37°C.
Cell proliferation assay of compounds was evaluated in BT-20 cells, and was compared with that of doxorubicin (DOX)[38]. Cell proliferation assay was carried out using CellTiter 96 aqueous one solution cell proliferation assay kit (Promega, USA). Briefly, upon reaching about 75-80% confluence, 5000 cells/well were plated in 96-well microplate in 100 μL media. After seeding for 72 h, the cells were treated with 50 μM compound in triplicate. […] The absorbance of the formazan product was measured at 490 nm using microplate reader. The blank control was recorded by measuring the absorbance at 490 nm with wells containing medium mixed with CellTiter 96 aqueous solution but no cells. Results were expressed as the percentage of the control (DMSO without compound set at 100%). The percentage of cell survival was calculated as (OD value of cells treated with test compound - OD value of culture medium) / (OD value of control cells – OD value of culture medium) × 100%. […]

In a further test the target is T1, c-Src kinase (Homo sapiens, UniProt P12931).
T1 construct: purchased Cell Signaling Technology (Danvers, MA, USA) 7776
T1 sequence (P12931 whole entry): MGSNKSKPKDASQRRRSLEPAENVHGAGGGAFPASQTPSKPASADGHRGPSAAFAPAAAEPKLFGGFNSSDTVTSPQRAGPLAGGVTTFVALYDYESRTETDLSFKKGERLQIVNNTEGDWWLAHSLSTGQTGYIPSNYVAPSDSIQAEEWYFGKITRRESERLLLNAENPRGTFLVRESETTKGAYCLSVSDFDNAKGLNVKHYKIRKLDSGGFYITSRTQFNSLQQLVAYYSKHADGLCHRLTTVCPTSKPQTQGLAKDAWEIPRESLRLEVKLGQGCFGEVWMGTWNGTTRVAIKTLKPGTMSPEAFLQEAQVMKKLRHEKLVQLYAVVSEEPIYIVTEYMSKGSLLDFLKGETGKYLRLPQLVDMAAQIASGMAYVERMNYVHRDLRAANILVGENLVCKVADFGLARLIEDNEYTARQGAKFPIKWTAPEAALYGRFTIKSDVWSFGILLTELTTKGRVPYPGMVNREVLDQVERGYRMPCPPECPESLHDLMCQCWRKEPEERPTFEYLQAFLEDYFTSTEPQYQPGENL
The test can be described thus: c-Src kinase activity assay (HTScan Src Kinase Assay Kit). The following applies: concentration that inhibited enzyme activity by 50%; triplicate; read-out: IC50 (inhibition of Src kinase activity). It is filed as biochemical. The procedure: Streptavidin-coated plates were purchased from Pierce (Rockford, IL, USA). […] The reaction mixture was incubated for 30 min at room temperature. The kinase reaction was stopped with the addition of 50 μL of 50 mM EDTA (pH 8.0). […] At the end of the incubation, the wells were washed three times with 200 μL of 0.05% Tween-20 in PBS buffer (PBS/T). After that to each well was added 100 μL of phosphotyrosine antibody (P-Tyr-100) (1:1000 dilution in PBS/T with 1% BSA) and the wells were incubated for another 60 min. After washing three times with 0.05% Tween-20 in PBS/T, the wells were incubated with 100 μL secondary anti-mouse IgG antibody, which was HRP-conjugated (1:500 dilution in PBS/T with 1% BSA) for next 30 min at room temperature. The wells were washed five times with 0.05% Tween-20 in PBS and then were incubated with 100 μL of 3,3',5,5'-tetramethylbenzidine dihydrochloride (TMB) substrate for 5 min. The reaction was stopped by adding 100 μL/well of stop solution to each well and mixed well and read the absorbance at 450 nm using a microplate reader (Molecular devices, spectra Max M2). IC50 values of the compounds were calculated using ORIGIN 6.0 (origin lab) software. […] All the experiments were carried out in triplicate.

Test [2] has as its system mesenchymal stem cell proliferation. On the set-up: method as in PMID 9562601. The following applies: cited from earlier work.

Each structure is given as a SMILES string.

In the case of `COc1cccc2c1C(=O)c1c(O)c3c(c(O)c1C2=O)C[C@@](O)(C(=O)CO)C[C@@H]3O[C@H]1C[C@H](N)[C@H](O)[C@H](C)O1` [doxorubicin], the “Inhibition of BT-20 cell growth (positive control)” value in test [1] is recorded as 25%.

For `N#CC1=C(N)Oc2ccc3ccccc3c2C1c1cccc(O)c1` (stereo not drawn) [Compound 4m], on c-Src kinase, the IC50 came to 33.8 µM.

Take `N#CC1=C(N)Oc2ccc3ccccc3c2C1c1cccc(Cl)c1` (stereo not drawn) [Compound 4j]: the IC50 on c-Src kinase was 41.7 µM.

Regarding `CSc1ccc(C2C(C#N)=C(N)OC3=C2CCc2ccccc23)cc1` (stereo not drawn) [compound B, 4-aryl-4H-5,6-dihydronaphtho[1,2-b]pyran], the half-inhibitory concentration (IC50) in test [2] is 13 µM.

For `N#CC1=C(N)Oc2c(ccc3ccccc23)C1c1ccccc1Cl` (stereo not drawn) [Compound 4d], at c-Src kinase, the IC50 came out at 34.7 µM.

On to `COc1ccc(C2C(C#N)=C(N)Oc3ccc4ccccc4c32)cc1` (stereo not drawn) [Compound 4n], for which the half-maximal inhibitory concentration (IC50) at c-Src kinase was found to be 34.5 µM.

The term IC50 denotes the concentration that gives 50% inhibition.
